This passage reports aqueous solubility results from patent US20220288037A1, “PRODRUGS AND FORMULATIONS THEREOF” (BOARD OF REGENTS OF THE UNIVERSITY OF NEBRASKA, priority 2019, published 2022).

A short description of the series: aqueous solubility of prodrug. Format: physicochemical. Conditions: prodrug compared with parent drug, FIG. 1B. The text has this:
FIGS. 1A-1D provide characterization of a prodrug of nitazoxanide ([…]) and a nanoformulation thereof (NM1NTZ). FIG. 1A provides a Fourier transform infrared (FT-IR) spectrum of […] showing absorption bands at 2915 cm^-1 and 2850 cm^-1, thereby confirming formation of the prodrug as well as the nuclear magnetic resonance spectroscopy of the compound. FIG. 1B provides a graph of the aqueous solubility of […]. […] FIG. 1C provides a graph of cell viability as evaluated by mitochondrial function in monocyte-derived macrophage (MDM) by a 3-(4,5-dimethylthiazol-2-yl)-2,5-diphenyltetrazolium bromide (MTT) assay. NM1NTZ exerted no adverse effects to cell viability at 400 μM of drug or less. FIG. 1D provides graphs showing the particle size, polydispersity index (PDI) and charge of the nanoformulations over time, thereby showing the stability of the nanoparticles.

For `CCCCCCCCCCCCCCCCCC(=O)Oc1ccccc1C(=O)Nc1ncc([N+](=O)[O-])s1` [M1NTZ], the aqueous solubility result is reported as “decreased water solubility”.
